Measurements as given in ChEMBL document CHEMBL4393652, “Development of Isoselenocyanate Compounds' Syntheses and Biological Applications” (2019).

Test system: UACC-903
Test: Antitumor activity against human UACC-903 cells xenografted in Nude-Foxn1nu mouse assessed as reduction in tumor size after 24 hrs relative to control
Assay type: functional
Parameters: scale not given: the % may be the effect or the level left

Question: For `[Se]=C=NCCCCc1ccccc1` [PHENYLBUTYL ISOSELENOCYANATE], which Activity is on record?
Answer: Its Activity is 77%.
